Converted amounts (≈) assume the structure as drawn.
What was measured:
[1] = test system: Klebsiella pneumoniae ATCC 10031; test: Antimicrobial activity (MIC); assay type: cell-based; conditions: ATCC10031, read-out: Minimal Inhibitory Concentrations (MICs)
[2] = test system: Streptococcus faecalis IFO 12964; test: Antimicrobial activity (MIC); assay type: cell-based; conditions: Enterococcus faecalis, IFO12964, read-out: Minimal Inhibitory Concentrations (MICs)
[3] = test system: Aspergillus niger ATCC 9642; test: Antimicrobial activity (MIC); assay type: cell-based; conditions: ATCC9642, read-out: Minimal Inhibitory Concentrations (MICs)
[4] = test system: Staphylococcus aureus Terajima; test: Antimicrobial activity (MIC); assay type: cell-based; conditions: read-out: Minimal Inhibitory Concentrations (MICs)
mouse leukemia P-388 = test: Antitumor activity (life prolongation) on mouse leukemia P-388; assay type: in vivo; conditions: i.p. once a day ten times, CDF1 male mice, P-388 i.p.
Protocol: Curing effects of substances SS42227A and B on mouse leukemia P-388 were examined according to the following method. In the Table, the antitumor activities, or the effect of life prolongation, are expressed as the percentage of the survival time (days) of treated groups (T) per the survival time (days) for the untreated or control group (C).
CDF1 (male: supplied by Charles River Japan Inc.) were inoculated intraperitoneally with 1×10^6 P-388 cells. Then, commencing at 24 hours thereafter, substance SS42227A was intraperitoneally injected into the mice once a day and ten times in total.

Serratia marcescens NHL = test: Antimicrobial activity (MIC); assay type: cell-based; conditions: read-out: Minimal Inhibitory Concentrations (MICs)
[5] = test system: Pseudomonas aeruqinosa IFO 13736; test: Antimicrobial activity (MIC); assay type: cell-based; conditions: IFO13736, read-out: Minimal Inhibitory Concentrations (MICs)
[6] = test system: Candida albicans NHL 4019; test: Antimicrobial activity (MIC); assay type: cell-based; conditions: NHL4019, read-out: Minimal Inhibitory Concentrations (MICs)
[7] = Property as to basic, acid or neutral; assay type: physicochemical
Sarcina lutea ATCC 9341 = test: Antimicrobial activity (MIC); assay type: cell-based; conditions: Micrococcus luteus, ATCC9341, read-out: Minimal Inhibitory Concentrations (MICs)
[8] = test system: Trichophyton tonsurans IFO 5928; test: Antimicrobial activity (MIC); assay type: cell-based; conditions: IFO5928, read-out: Minimal Inhibitory Concentrations (MICs)
Shigella flexneri 2b = test: Antimicrobial activity (MIC); assay type: cell-based; conditions: read-out: Minimal Inhibitory Concentrations (MICs)
[9] = test system: Staphylococcus epidermidis ATCC 12228; test: Antimicrobial activity (MIC); assay type: cell-based; conditions: ATCC12228, read-out: Minimal Inhibitory Concentrations (MICs)
[10] = test system: Pyricularia oryzae IAM 5016; test: microbe, parasite or virus in culture; assay type: cell-based; conditions: IAM5016, read-out: Minimal Inhibitory Concentrations (MICs)
[11] = test system: Micrococcus lysodeikticus IFO 3333; test: Antimicrobial activity (MIC); assay type: cell-based; conditions: Micrococcus luteus, IFO3333, read-out: Minimal Inhibitory Concentrations (MICs)
Escherichia coli 0-1 = test: Antimicrobial activity (MIC); assay type: cell-based; conditions: 01, read-out: Minimal Inhibitory Concentrations (MICs)
[12] = test system: Bacillus subtilis ATCC 6633; test: Antimicrobial activity (MIC); assay type: cell-based; conditions: ATCC6633, read-out: Minimal Inhibitory Concentrations (MICs)
[13] = test system: Staphylococcus aureus 209P; test: Antimicrobial activity (MIC); assay type: cell-based; conditions: read-out: Minimal Inhibitory Concentrations (MICs)
Solubility to solvents = assay type: physicochemical
[14] = test system: Staphylococcus aureus Smith; test: Antimicrobial activity (MIC); assay type: cell-based; conditions: read-out: Minimal Inhibitory Concentrations (MICs)
Proteus rettgeri = test: Antimicrobial activity (MIC); assay type: cell-based; conditions: Providencia rettgeri, read-out: Minimal Inhibitory Concentrations (MICs)

SMILES | MIC [1] | MIC [2] | MIC [3] | MIC [4] | MIC (Serratia marcescens NHL) | MIC [5] | MIC [6] | Property as to basic, acid or neutral [7] | MIC (Sarcina lutea ATCC 9341) | MIC [8] | MIC (Shigella flexneri 2b) | MIC [9] | MIC [10] | MIC [11] | MIC (Escherichia coli 0-1) | MIC [12] | MIC [13] | Solubility to solvents (Solubility to solvents; acetone) | Solubility to solvents (Solubility to solvents; chloroform) | Solubility to solvents (Solubility to solvents; diethyl ether) | further results
COc1cc(C(=O)OC(C(=O)NC(C(=O)NCC(C)=O)=C2C(OC(C)=O)C(O)C3CN23)C2(C)CO2)c2cccc(C)c2c1 (stereo not shown) [SS42227A] | 3.12 µg/mL (≈ 5.24 µM) | 0.78 µg/mL (≈ 1.31 µM) | > 100 µg/mL | 6.25 µg/mL (≈ 10.5 µM) | 100 µg/mL (≈ 168 µM) | > 100 µg/mL | > 100 µg/mL | Neutral | < 0.2 µg/mL | > 100 µg/mL | < 0.2 µg/mL | 6.25 µg/mL (≈ 10.5 µM) | 100 µg/mL (≈ 168 µM) | < 0.2 µg/mL | > 100 µg/mL | 0.78 µg/mL (≈ 1.31 µM) | 6.25 µg/mL (≈ 10.5 µM) | Soluble | Soluble | Soluble | Antitumor Activity T/C (survival time treated/control) (mouse leukemia P-388; 2 μg/kg/day): 163%; Antitumor Activity T/C (survival time treated/control) (mouse leukemia P-388; 4 μg/kg/day): 144%; Antitumor Activity T/C (survival time treated/control) (mouse leukemia P-388; 8 μg/kg/day): 154%; Antitumor Activity T/C (survival time treated/control) (mouse leukemia P-388; 15 μg/kg/day): 192%; Antitumor Activity T/C (survival time treated/control) (mouse leukemia P-388; 15.1 μg/kg/day): 170%; Antitumor Activity T/C (survival time treated/control) (mouse leukemia P-388; 30 μg/kg/day): 211%; Antitumor Activity T/C (survival time treated/control) (mouse leukemia P-388; 31.2 μg/kg/day): 195%; Antitumor Activity T/C (survival time treated/control) (mouse leukemia P-388; 60 μg/kg/day): 77%; Antitumor Activity T/C (survival time treated/control) (mouse leukemia P-388; 62.5 μg/kg/day): 152%; Solubility to solvents (Solubility to solvents; ethyl acetate): Soluble; Solubility to solvents (Solubility to solvents; methanol): Soluble; Solubility to solvents (Solubility to solvents; n-hexane): Sparingly soluble; Solubility to solvents (Solubility to solvents; water): Sparingly soluble; MIC [14]: 1.56 µg/mL (≈ 2.62 µM); MIC (Proteus rettgeri): 100 µg/mL (≈ 168 µM)
COc1cc(C(=O)OC(C(=O)NC(C(=O)NC(=CO)C(C)=O)=C2C(OC(C)=O)C(O)C3CN23)C2(C)CO2)c2cccc(C)c2c1 (stereo not shown) [SS42227B] | 50 µg/mL (≈ 80.2 µM) | 0.78 µg/mL (≈ 1.25 µM) | > 100 µg/mL | 50 µg/mL (≈ 80.2 µM) | > 100 µg/mL | > 100 µg/mL | > 100 µg/mL | Acid | < 0.2 µg/mL | > 100 µg/mL | 0.78 µg/mL (≈ 1.25 µM) | 100 µg/mL (≈ 160 µM) | > 100 µg/mL | < 0.2 µg/mL | > 100 µg/mL | 50 µg/mL (≈ 80.2 µM) | 50 µg/mL (≈ 80.2 µM) | Soluble | Soluble | Sparingly soluble | Solubility to solvents (Solubility to solvents; ethyl acetate): Soluble; Solubility to solvents (Solubility to solvents; methanol): Soluble; Solubility to solvents (Solubility to solvents; n-hexane): Sparingly soluble; Solubility to solvents (Solubility to solvents; water): Sparingly soluble; MIC [14]: 1.56 µg/mL (≈ 2.5 µM); MIC (Proteus rettgeri): > 100 µg/mL

Source: patent US4835287A, “Antibiotic substance” (SS Pharmaceutical Co., Ltd., priority 1987, dated 1989)
